One assay deals with Nucleic Acid. Description: Binding affinity for calf thymus DNA measured as change in melting temperature. It counts as nucleic-acid assay. To be noted: Bos taurus.
The test system of assay [1] is Pneumocystis carinii. The assay is described as follows: Anti-P. carinii activity determined as change in number of Pneumocystis carinii trophozoites from day 1 through day 7 in culture at 1 uM. The format is functional.
Assay [2] has as its system Pneumocystis carinii. Description: Percent of control growth of Pneumocystis carinii trophozoites was determined. It counts as functional. Details: concentration or dose not given beside the values.
The nature of assay [3]: Binding affinity for Poly (dA-dT) measured as change in melting temperature.
Assay [4] relates to Pneumocystis carinii. Description: Anti-P. carinii activity determined as change in number of Pneumocystis carinii trophozoites from day 1 through day 5 in culture at 1 uM. It counts as functional.

The results in this text go back to ChEMBL document CHEMBL1133802, “N,N'-bis[4-(N-alkylamidino)phenyl]homopiperazines as anti-Pneumocystis carinii agents” (2001).

Usually ΔTm stands for the change in melting temperature against a reference sample.

SMILES strings stand for the structures.

Consider `N=C(NC1CCCC1)c1ccc(N2CCCN(c3ccc(C(=N)NC4CCCC4)cc3)CC2)cc1`, for which the ΔTm came to 17.9 °C with Nucleic Acid and 26.5 °C in assay [3]. Also, the “Change in No. of trophozoites x 10E-5” value in the assay on Pneumocystis carinii [1] stood at 34.32. In the assay with Pneumocystis carinii [2], this compound returned a Growth of 103%.
Regarding `CCCCNC(=N)c1ccc(N2CCCN(c3ccc(C(=N)NCCCC)cc3)CC2)cc1`, the results for the ΔTm (in the assay on Nucleic Acid; in assay [3]) were 11.8 °C and 13.3 °C, respectively. The “Change in No. of trophozoites x 10E-5” value with Pneumocystis carinii [1] is 19.19. This compound also came in with a Growth in the assay with Pneumocystis carinii [2] of 58%.
For `N=C(N)c1ccc(N2CCCN(c3ccc(C(=N)N)cc3)CC2)cc1`, the values for the ΔTm (in the assay with Nucleic Acid; in assay [3]) were 15 °C and 23.1 °C, respectively. Also, in the assay on Pneumocystis carinii [4], the “Change in No. of trophozoites x 10E-5” value is listed as -3.32. This compound also gave a Growth in the assay with Pneumocystis carinii [2] of under 0%.
Regarding `CC(C)(C)/N=C(\N)c1ccc(N2CCCN(c3ccc(/C(N)=N/C(C)(C)C)cc3)CC2)cc1`, the values for the thermal shift (ΔTm) (in the assay with Nucleic Acid; in assay [3]) were 4.1 °C and 7.4 °C, respectively. In addition, the “Change in No. of trophozoites x 10E-5” value in the assay with Pneumocystis carinii [1] is given as 21.57. The Growth with Pneumocystis carinii [2] was 65%.
In the case of `N=C(N)c1ccc(OCCCCCOc2ccc(C(=N)N)cc2)cc1` [PENTAMIDINE], the figures for the ΔTm (in the assay with Nucleic Acid; in assay [3]) were 11.1 °C and 20.6 °C, respectively. In the assay with Pneumocystis carinii [4], the “Change in No. of trophozoites x 10E-5” value was -3.98. The compound further returned a Growth in the assay with Pneumocystis carinii [2] of under 0%.
As to `COc1cc(Cc2cnc(N)nc2N)cc(OC)c1OC.Cc1cc(NS(=O)(=O)c2ccc(N)cc2)no1` [CO-TRIMOXAZOLE], in the assay on Pneumocystis carinii [2], the Growth is under 0%.
As for `CC(C)/N=C(\N)c1ccc(N2CCCN(c3ccc(/C(N)=N/C(C)C)cc3)CC2)cc1`, the thermal shift (ΔTm) was found to be 13.8 °C in the assay with Nucleic Acid and 20 °C in assay [3]. The “Change in No. of trophozoites x 10E-5” value with Pneumocystis carinii [1] is 20.2. The same compound gave a Growth in the assay on Pneumocystis carinii [2] of 61%.
For `N=C(NC1CC1)c1ccc(N2CCCN(c3ccc(C(=N)NC4CC4)cc3)CC2)cc1`, the ΔTm stood at 15.3 °C in the assay on Nucleic Acid and 23.6 °C in assay [3]. The “Change in No. of trophozoites x 10E-5” value in the assay on Pneumocystis carinii [1] was determined as 10.92. In the assay on Pneumocystis carinii [2], the Growth was 33%.
`c1cc(N2CCCN(c3ccc(C4=NCCCN4)cc3)CC2)ccc1C1=NCCCN1`: the ΔTm in the assay on Nucleic Acid stood at 15.5 °C; in assay [3] it was 21.3 °C. In the assay on Pneumocystis carinii [1], the “Change in No. of trophozoites x 10E-5” value is given as 10.73. The compound also displayed a Growth with Pneumocystis carinii [2] of 32%.
As to `N=C(NCCCO)c1ccc(N2CCCN(c3ccc(/C(N)=N/CCCO)cc3)CC2)cc1`, the values for the ΔTm (in the assay on Nucleic Acid; in assay [3]) were 17.4 °C and 23.6 °C, respectively. Further, the “Change in No. of trophozoites x 10E-5” value with Pneumocystis carinii [1] is 34.79. Moreover, the Growth with Pneumocystis carinii [2] is recorded as 105%.
`N=C(NCCO)c1ccc(N2CCCN(c3ccc(/C(N)=N/CCO)cc3)CC2)cc1`: the ΔTm was 11.1 °C in the assay with Nucleic Acid and 14.7 °C in assay [3]. For the same compound, the “Change in No. of trophozoites x 10E-5” value in the assay with Pneumocystis carinii [1] is recorded as 33.62. Besides, the Growth in the assay with Pneumocystis carinii [2] is given as 101%.
